Data reported in patent publication US12084419B2, “Cell metabolism modulating compounds and uses thereof” (CRESCENTA BIOSCIENCES, priority 2020, dated 2024).

Biological target: T1, His6 tagged human recombinant FABP4 (Homo sapiens, UniProt P15090)
T1 construct: purchased Cayman Chemicals 10009549
Experiment: FABP4 TR-FRET assay: displacement of BODIPY FL C12 fatty acid
Settings: triplicates, inhibition of BODIPY FL C12 binding; for inhibition at 1 µM: 1 μM compound; for inhibition at 10 µM: 10 μM compound
Text: Activity of compounds with FABP4 was profiled using a Terbium (Tb) based time resolved fluorescence energy transfer (TR-FRET) assay. The assay measures the compound mediated displacement of the fluorescent fatty acid BODIPY FL C12 (Thermo Fisher; catalog number D3822) from His6 tagged human recombinant FABP4 (His6-FABP4; Cayman Chemicals, catalog number 10009549) via recording the energy transfer from TB donor molecule on anti-His6-tag antibody to acceptor BODIPY moiety. Briefly, compounds were prepared at a concentration of 0.362 mM and 0.0362 mM, and BODIPY FL C12 was prepared at 4.2 μM, in DMSO. 1.2 μL of each compound or DMSO (vehicle control) and 1.2 μL of BODIPY FL C12 were added into the wells of a 384-well black polypropylene plate. His6-FABP4 and Tb anti-His6 antibody were prepared in the assay buffer (25 mM Tris/HCl, pH 7.4, 0.4 mg/ml y-globulins, 0.010% NP-40, 1 mM DTT) at a concentration of 83 nM and 49.6 nM, respectively. The protein and antibody solutions were then mixed at a ratio of 34:7 (v/v) and incubated on ice for 30 minutes. The assay was initiated by adding 41 μL of the resulting protein/antibody solution into the wells containing the compounds and BODIPY FL C12. The plate was centrifuged and incubated at room temperature for 10 min. The TR-FRET signals were recorded using an EnVision Multilabel plate reader (PerkinElmer; TB excitation 320 nm, BODIPY FL C12 emission 520 nm; TB emission 615 nm). Relative fluorescence ratio (520 nm*10,000/615 nm) were used to calculate the compound mediated inhibition of BODIPY C12 FL fatty acid binding to FABP4. […] Glucose consumption and FABP4 inhibition is shown below in Table 3 below.

T1 sequence (P15090 whole entry): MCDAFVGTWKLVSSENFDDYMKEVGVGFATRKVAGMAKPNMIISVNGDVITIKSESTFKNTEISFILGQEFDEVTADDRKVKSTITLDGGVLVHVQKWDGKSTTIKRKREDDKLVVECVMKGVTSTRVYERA

Compound | inhibition at 1 µM [%] | inhibition at 10 µM [%]
CCCCC1CCCc2c1n(Cc1cccc(C(N)=O)c1)c1c(C(=O)O)cccc21 (centres unmarked) [1-butyl-9-[(3-carbamoylphenyl)methyl]-2,3,4,9-tetrahydro-1H-carbazole-8-carboxylic acid] | 83 | 86.2
CCCCC1CCCc2c1n(Cc1cccc(C#N)c1)c1c(C(=O)O)cccc21 (centres unmarked) [1-butyl-9-[(3-cyanophenyl)methyl]-2,3,4,9-tetrahydro-1H-carbazole-8-carboxylic acid] | 58 | 93.7
CCCCC1CCCc2c(n(Cc3cccc(C(N)=O)c3)c3c(C(=O)NCC(=O)O)cccc23)C1 (centres unmarked) [2-({7-butyl-5-[(3-carbamoylphenyl)methyl]-5H,6H,7H,8H,9H,10H-cyclohepta[b]indol-4-yl}formamido)acetic acid] | 59 | 90.2
CCCCC1CCCc2c(n(Cc3cccc(C#N)c3)c3c(C(=O)NCC(=O)O)cccc23)C1 (centres unmarked) [2-({7-butyl-5-[(3-cyanophenyl)methyl]-5H,6H,7H,8H,9H,10H-cyclohepta[b]indol-4-yl}formamido)acetic acid] | 8.61 | 41
CCCCC1Cc2c(n(Cc3cccc(C(N)=O)c3)c3c(C(=O)O)cccc23)C1 (centres unmarked) [2-butyl-4-[(3-carbamoylphenyl)methyl]-1H,2H,3H,4H-cyclopenta[b]indole-5-carboxylic acid] | 87.2 | 95.2
CCCCC1Cc2c(n(Cc3cccc(C#N)c3)c3c(C(=O)O)cccc23)C1 (centres unmarked) [2-butyl-4-[(3-cyanophenyl)methyl]-1H,2H,3H,4H-cyclopenta[b]indole-5-carboxylic acid] | 62.1 | 85.1
CCCCC1CCc2c(n(Cc3cccc(C(N)=O)c3)c3c(C(=O)O)cccc23)C1 (centres unmarked) [2-butyl-9-[(3-carbamoylphenyl)methyl]-2,3,4,9-tetrahydro-1H-carbazole-8-carboxylic acid] | 88.5 | 95.5
CCCCCCC1CCc2c(n(Cc3ccnc(OC)c3)c3c(C(=O)O)cccc23)C1 (centres unmarked) [2-hexyl-9-[(2-methoxypyridin-4-yl)methyl]-2,3,4,9-tetrahydro-1H-carbazole-8-carboxylic acid] | 44.2 | 77.8
CCCCCCC1CCc2c(n(Cc3ccccc3C)c3c(C(=O)O)cccc23)C1 (centres unmarked) [2-hexyl-9-[(2-methylphenyl)methyl]-2,3,4,9-tetrahydro-1H-carbazole-8-carboxylic acid] | 87.4 | 83.2
CCCCCCC1CCc2c(n(Cc3cccc(O)c3)c3c(C(=O)O)cccc23)C1 (centres unmarked) [2-hexyl-9-[(3-hydroxyphenyl)methyl]-2,3,4,9-tetrahydro-1H-carbazole-8-carboxylic acid] | 77.9 | 93.1
CCCCCCC1CCc2c(n(Cc3ccc(C)cc3)c3c(C(=O)O)cccc23)C1 (centres unmarked) [2-hexyl-9-[(4-methylphenyl)methyl]-2,3,4,9-tetrahydro-1H-carbazole-8-carboxylic acid] | 74.3 | 88.5
CCCCC1CCc2c1n(Cc1cccc(C(N)=O)c1)c1c(C(=O)O)cccc21 (centres unmarked) [3-butyl-4-[(3-carbamoylphenyl)methyl]-1H,2H,3H,4H-cyclopenta[b]indole-5-carboxylic acid] | 96.8 | 98.5
CCCCC1CCc2c1n(Cc1cccc(C#N)c1)c1c(C(=O)O)cccc21 (centres unmarked) [3-butyl-4-[(3-cyanophenyl)methyl]-1H,2H,3H,4H-cyclopenta[b]indole-5-carboxylic acid] | 85.1 | 98.5
CCCCC1CCc2c(c3cccc(C(=O)O)c3n2Cc2cccc(C(N)=O)c2)C1 (centres unmarked) [3-butyl-9-[(3-carbamoylphenyl)methyl]-2,3,4,9-tetrahydro-1H-carbazole-8-carboxylic acid] | 92.4 | 97.2
CCCCC1CCc2c(c3cccc(C(=O)O)c3n2Cc2cccc(C#N)c2)C1 (centres unmarked) [3-butyl-9-[(3-cyanophenyl)methyl]-2,3,4,9-tetrahydro-1H-carbazole-8-carboxylic acid] | 35.8 | 81.1
CCCCCC1Cc2c(n(Cc3cccc(C(N)=O)c3)c3c(C(=O)O)cccc23)C1 (centres unmarked) [4-[(3-carbamoylphenyl)methyl]-2-pentyl-1H,2H,3H,4H-cyclopenta[b]indole-5-carboxylic acid] | 86.9 | 93.1

Compound | inhibition at 1 µM [%] | inhibition at 10 µM [%]
CCC1CCc2c1n(Cc1cccc(C(N)=O)c1)c1c(C(=O)O)cccc21 (centres unmarked) [4-[(3-carbamoylphenyl)methyl]-3-ethyl-1H,2H,3H,4H-cyclopenta[b]indole-5-carboxylic acid] | 87.3 | 102
CCCC1CCc2c1n(Cc1cccc(C(N)=O)c1)c1c(C(=O)O)cccc21 (centres unmarked) [4-[(3-carbamoylphenyl)methyl]-3-propyl-1H,2H,3H,4H-cyclopenta[b]indole-5-carboxylic acid] | 89.1 | 95.3
CCCCCC1Cc2c(n(Cc3cccc(C#N)c3)c3c(C(=O)O)cccc23)C1 (centres unmarked) [4-[(3-cyanophenyl)methyl]-2-pentyl-1H,2H,3H,4H-cyclopenta[b]indole-5-carboxylic acid] | 39.5 | 78.3
CCC1CCc2c1n(Cc1cccc(C#N)c1)c1c(C(=O)O)cccc21 (centres unmarked) [4-[(3-cyanophenyl)methyl]-3-ethyl-1H,2H,3H,4H-cyclopenta[b]indole-5-carboxylic acid] | 54.8 | 86.2
CCCC1CCc2c1n(Cc1cccc(C#N)c1)c1c(C(=O)O)cccc21 (centres unmarked) [4-[(3-cyanophenyl)methyl]-3-propyl-1H,2H,3H,4H-cyclopenta[b]indole-5-carboxylic acid] | 67.8 | 97.6
CCCCC1CCCc2c1c1cccc(C(=O)O)c1n2Cc1cccc(C(N)=O)c1 (centres unmarked) [4-butyl-9-[(3-carbamoylphenyl)methyl]-2,3,4,9-tetrahydro-1H-carbazole-8-carboxylic acid] | 43.3 | 83.4
CCCCC1CCCc2c1c1cccc(C(=O)O)c1n2Cc1cccc(C#N)c1 (centres unmarked) [4-butyl-9-[(3-cyanophenyl)methyl]-2,3,4,9-tetrahydro-1H-carbazole-8-carboxylic acid] | 25.3 | 65.5
CCCCCCC1CCCc2c(n(C(=O)c3cccc(C#N)c3)c3c(C(=O)O)cccc23)C1 (centres unmarked) [5-(3-cyanobenzoyl)-7-hexyl-5H,6H,7H,8H,9H,10H-cyclohepta[b]indole-4-carboxylic acid] | 87.1 | 88.5
CCCCCCC1CCCc2c(n(Cc3ccc4ocnc4c3)c3c(C(=O)O)cccc23)C1 (centres unmarked) [5-[(1,3-benzoxazol-5-yl)methyl]-7-hexyl-5H,6H,7H,8H,9H,10H-cyclohepta[b]indole-4-carboxylic acid] |  | 88.5
CCCCCCC1CCCc2c(n(Cc3ccc4ncoc4c3)c3c(C(=O)O)cccc23)C1 (centres unmarked) [5-[(1,3-benzoxazol-6-yl)methyl]-7-hexyl-5H,6H,7H,8H,9H,10H-cyclohepta[b]indole-4-carboxylic acid] | 101 | 94.9
CCCCCCC1CCCc2c(n(Cc3cccc4ncoc34)c3c(C(=O)O)cccc23)C1 (centres unmarked) [5-[(1,3-benzoxazol-7-yl)methyl]-7-hexyl-5H,6H,7H,8H,9H,10H-cyclohepta[b]indole-4-carboxylic acid] | 92 | 95.3
CCCCCCC1CCCc2c(n(Cc3ccccc3C(N)=O)c3c(C(=O)O)cccc23)C1 (centres unmarked) [5-[(2-carbamoylphenyl)methyl]-7-hexyl-5H,6H,7H,8H,9H,10H-cyclohepta[b]indole-4-carboxylic acid] | 79.2 | 82
CCCCCCC1CCCc2c(n(Cc3ccccc3C#N)c3c(C(=O)O)cccc23)C1 (centres unmarked) [5-[(2-cyanophenyl)methyl]-7-hexyl-5H,6H,7H,8H,9H,10H-cyclohepta[b]indole-4-carboxylic acid] |  | 88.6
CCCCCCC1CCCc2c(n(Cc3ccccc3F)c3c(C(=O)O)cccc23)C1 (centres unmarked) [5-[(2-fluorophenyl)methyl]-7-hexyl-5H,6H,7H,8H,9H,10H-cyclohepta[b]indole-4-carboxylic acid] | 77.5 | 87.3
CCCCCCC1CCCc2c(n(Cc3ccnc(F)c3)c3c(C(=O)O)cccc23)C1 (centres unmarked) [5-[(2-fluoropyridin-4-yl)methyl]-7-hexyl-5H,6H,7H,8H,9H,10H-cyclohepta[b]indole-4-carboxylic acid] | 92.8 | 90.4
CCCCCCC1CCCc2c(n(Cc3c(C)noc3C)c3c(C(=O)O)cccc23)C1 (centres unmarked) [5-[(3,5-dimethyl-1,2-oxazol-4-yl)methyl]-7-hexyl-5H,6H,7H,8H,9H,10H-cyclohepta[b]indole-4-carboxylic acid] | 79.8 | 95.6
